pIC50: −log10 of the molar value. Each block holds one compound with its values, some of them ahead of it. Active and inactive are the calls of the source. The calls are words filed in the database; no cut-off is given here.
Assays:
[1] = biological target: NT-3 growth factor receptor (Homo sapiens, UniProt Q16288); assay: Inhibition of TRKC (unknown origin) using Kinase substrate 22 pre-incubated with compound for 10 mins followed by substrate and ATP addition measured after 30 mins by mobility shift assay based caliper reader analysis
[2] = biological target: T1, High affinity nerve growth factor receptor (Homo sapiens, UniProt P04629); assay: Inhibition of TRKA (unknown origin) using Kinase substrate 22 pre-incubated with compound for 10 mins followed by substrate and ATP addition measured after 30 mins by mobility shift assay based caliper reader analysis
Target sequence in this assay (P04629 whole entry): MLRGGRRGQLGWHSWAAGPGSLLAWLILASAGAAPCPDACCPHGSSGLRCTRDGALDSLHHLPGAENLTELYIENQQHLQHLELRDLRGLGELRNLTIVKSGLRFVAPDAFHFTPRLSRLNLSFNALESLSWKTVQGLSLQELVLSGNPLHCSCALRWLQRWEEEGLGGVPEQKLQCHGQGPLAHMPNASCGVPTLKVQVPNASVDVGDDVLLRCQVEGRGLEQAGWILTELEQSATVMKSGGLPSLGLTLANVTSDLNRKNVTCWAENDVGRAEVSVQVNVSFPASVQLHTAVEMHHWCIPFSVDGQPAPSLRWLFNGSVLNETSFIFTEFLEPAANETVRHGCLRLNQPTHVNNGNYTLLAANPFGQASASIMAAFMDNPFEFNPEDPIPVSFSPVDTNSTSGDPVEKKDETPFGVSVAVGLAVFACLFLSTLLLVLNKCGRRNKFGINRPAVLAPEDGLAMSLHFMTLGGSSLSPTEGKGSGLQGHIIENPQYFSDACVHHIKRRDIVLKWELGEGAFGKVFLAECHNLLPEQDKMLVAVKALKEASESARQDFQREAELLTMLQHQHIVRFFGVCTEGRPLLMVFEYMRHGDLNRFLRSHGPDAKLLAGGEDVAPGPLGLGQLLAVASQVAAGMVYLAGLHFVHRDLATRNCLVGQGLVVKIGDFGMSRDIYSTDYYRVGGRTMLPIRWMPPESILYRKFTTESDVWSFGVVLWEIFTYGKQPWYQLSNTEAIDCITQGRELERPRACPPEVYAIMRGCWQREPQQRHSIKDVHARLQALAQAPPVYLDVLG

[3] = biological target: BDNF/NT-3 growth factors receptor (Homo sapiens, UniProt Q16620); assay: Inhibition of TRKB (unknown origin) using Kinase substrate 22 pre-incubated with compound for 10 mins followed by substrate and ATP addition measured after 30 mins by mobility shift assay based caliper reader analysis
Mus musculus [4] = assay: Antinociceptive activity in Kunming mouse assessed as reduction in nociceptive response at 100 mg/kg,IG administration and measured for 1 to 6 hrs by hot plate test; type: functional, organism-based; details: time 1-6 hrs
Mus musculus [5] = assay: Antinociceptive activity in ATP-induced Kunming mouse assessed as reduction in nociceptive response at 40 mg/kg,IG administration and measured after 1 hr by hot plate test; type: functional, organism-based
[6] = Drug metabolism in mouse hepatocyte assessed as 5-(3-(1-Methy1-1H-pyrazol-3-y1)-4-(trifluoromethyl)benzamido)-6-phenylnicotinic acid metabolite formation at 2 uM incubated for 30 mins by LC-MS/MS analysis; type: ADME, cell-based; details: hepatocytes, 0.5 h
[7] = Drug metabolism in mouse hepatocyte assessed as N-(5-Hydroxy-2-phenylpyridin-3-y1)-3-(1-methyl-1H-pyrazol-3-y1)-4-(trifluoromethyl) benzamide metabolite formation at 2 uM incubated for 30 mins by LC-MS/MS analysis; type: ADME, cell-based; details: hepatocytes, 0.5 h
Mus musculus [8] = assay: Antinociceptive activity against formalin-induced pain in C57BL/6N mouse assessed as reduction in nociceptive response in phase I at IG administration for 1 hr followed by formalin challenge; type: functional, organism-based
[9] = Drug metabolism in mouse hepatocyte assessed as 5-(3-(1-Methyl-1H-pyrazol-3-y1)-4-(trifluoromethyl)benzamido)-6-phenybridirt-3-yldihydrogen phosphate metabolite formation at 2 uM incubated for 30 mins by LC-MS/MS analysis; type: ADME, cell-based; details: hepatocytes, 0.5 h
Mus musculus [10] = assay: Antinociceptive activity in Kunming mouse assessed as reduction in nociceptive response at 40 mg/kg,IG administration and measured at 3 hrs by hot plate test; type: functional, organism-based
Mus musculus [11] = assay: Antinociceptive activity in Kunming mouse assessed as reduction in nociceptive response at 15 mg/kg,IG administration and measured after 1 hr by hot plate test; type: functional, organism-based
Mus musculus [12] = assay: Antinociceptive activity against formalin-induced pain in C57BL/6N mouse assessed as reduction in nociceptive response in phase II at IG administration for 1 hr followed by formalin challenge; type: functional, organism-based
Mus musculus [13] = assay: Antinociceptive activity in Kunming mouse assessed as reduction in nociceptive response by measuring effective dose at IG administration measured after 3 hr by hot plate test; type: functional; details: po
[14] = Drug metabolism in Kunming mouse blood assessed as 5-(3-(1-Methy1-1H-pyrazol3-yl)-4-(trifluoromethyl)benzamido)-6-phenylnicotinic acid metabolite formation at 15 mg/kg,IG administration measured after 1 hr by LC-MS/MS analysis; type: ADME, organism-based; details: in vivo, po
Mus musculus [15] = assay: Antinociceptive activity in Kunming mouse assessed as reduction in nociceptive response at 8 mg/kg,IG administrated with TRKA activator, Amitriptyline and measured at 3 hrs by hot plate test; type: functional, organism-based
[16] = Drug uptake in Kunming mouse blood at 15 mg/kg,IG administration measured after 30 mins by LC-MS/MS analysis; type: ADME, organism-based; details: in vivo, po, 0.5 h
Mus musculus [17] = assay: Antinociceptive activity in Kunming mouse assessed as reduction in nociceptive response at 40 mg/kg,IG administration and measured after 1 hr by hot plate test; type: functional; design: scale not given: the % may be the effect or the level left
[18] = biological target: T1, High affinity nerve growth factor receptor; assay: Inhibition of human 6-His tagged TRKA expressed in Sf9 insect cells incubated for 2 hrs in presence of ATP by LanthaScreen based FRET assay
Target sequence in this assay (P04629 whole entry): as above

[19] = biological target: T1, High affinity nerve growth factor receptor; assay: Inhibition of human 6-His tagged TRKA expressed in Sf9 insect cells incubated for 2 hrs in presence of ATP by LanthaScreen based FRET assay relative to control; details: concentration not given here
Target sequence in this assay (P04629 33-796 limits assumed): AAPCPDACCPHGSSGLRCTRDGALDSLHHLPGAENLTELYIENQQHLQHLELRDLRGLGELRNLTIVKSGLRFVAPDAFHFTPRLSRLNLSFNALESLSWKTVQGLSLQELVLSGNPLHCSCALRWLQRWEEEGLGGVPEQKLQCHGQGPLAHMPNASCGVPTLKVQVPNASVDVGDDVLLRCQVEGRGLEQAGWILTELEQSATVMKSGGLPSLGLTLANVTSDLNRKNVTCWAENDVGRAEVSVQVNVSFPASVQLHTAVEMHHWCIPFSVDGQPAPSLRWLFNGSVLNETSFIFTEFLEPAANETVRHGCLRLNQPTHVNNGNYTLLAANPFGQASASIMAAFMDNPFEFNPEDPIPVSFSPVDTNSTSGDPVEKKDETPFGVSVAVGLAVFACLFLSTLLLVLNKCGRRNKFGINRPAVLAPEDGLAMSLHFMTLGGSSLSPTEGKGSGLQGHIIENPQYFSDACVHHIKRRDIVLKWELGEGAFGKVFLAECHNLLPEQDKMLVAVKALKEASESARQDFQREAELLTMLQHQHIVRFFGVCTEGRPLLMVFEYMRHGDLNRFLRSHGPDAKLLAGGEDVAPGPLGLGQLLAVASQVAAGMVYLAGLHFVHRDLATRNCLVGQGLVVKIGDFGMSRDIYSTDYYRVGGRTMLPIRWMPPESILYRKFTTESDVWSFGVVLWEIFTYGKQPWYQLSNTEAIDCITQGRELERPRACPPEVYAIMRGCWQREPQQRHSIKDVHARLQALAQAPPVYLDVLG

Mus musculus [20] = assay: Antinociceptive activity in Kunming mouse assessed as reduction in nociceptive response at 40 mg/kg,IG administration and measured for 1 to 6 hrs by hot plate test; type: functional, organism-based; details: time 1-6 hrs

Chain of NT-3 growth factor receptor (Q16288 whole entry): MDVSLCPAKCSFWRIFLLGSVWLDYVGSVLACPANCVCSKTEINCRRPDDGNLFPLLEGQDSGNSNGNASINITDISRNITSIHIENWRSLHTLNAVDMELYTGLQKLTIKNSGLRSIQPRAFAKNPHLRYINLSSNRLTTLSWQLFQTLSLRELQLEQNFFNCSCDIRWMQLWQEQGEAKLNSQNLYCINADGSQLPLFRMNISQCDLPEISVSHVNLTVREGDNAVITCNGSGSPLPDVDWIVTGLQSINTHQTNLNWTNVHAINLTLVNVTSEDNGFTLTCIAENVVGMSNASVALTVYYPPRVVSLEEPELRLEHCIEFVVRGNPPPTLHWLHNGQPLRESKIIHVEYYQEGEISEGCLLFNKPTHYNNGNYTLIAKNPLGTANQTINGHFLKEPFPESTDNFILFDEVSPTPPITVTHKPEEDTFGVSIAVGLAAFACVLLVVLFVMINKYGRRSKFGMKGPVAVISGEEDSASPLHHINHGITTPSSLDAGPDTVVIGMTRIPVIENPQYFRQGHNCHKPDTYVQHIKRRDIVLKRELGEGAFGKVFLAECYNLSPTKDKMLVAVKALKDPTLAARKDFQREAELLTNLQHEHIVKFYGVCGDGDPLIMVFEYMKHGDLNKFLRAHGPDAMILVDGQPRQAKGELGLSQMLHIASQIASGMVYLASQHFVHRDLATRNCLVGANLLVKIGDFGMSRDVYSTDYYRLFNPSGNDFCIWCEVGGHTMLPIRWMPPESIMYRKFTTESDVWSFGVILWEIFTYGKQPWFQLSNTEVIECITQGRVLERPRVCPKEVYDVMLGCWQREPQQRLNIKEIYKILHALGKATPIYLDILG
Chain of BDNF/NT-3 growth factors receptor (Q16620 whole entry): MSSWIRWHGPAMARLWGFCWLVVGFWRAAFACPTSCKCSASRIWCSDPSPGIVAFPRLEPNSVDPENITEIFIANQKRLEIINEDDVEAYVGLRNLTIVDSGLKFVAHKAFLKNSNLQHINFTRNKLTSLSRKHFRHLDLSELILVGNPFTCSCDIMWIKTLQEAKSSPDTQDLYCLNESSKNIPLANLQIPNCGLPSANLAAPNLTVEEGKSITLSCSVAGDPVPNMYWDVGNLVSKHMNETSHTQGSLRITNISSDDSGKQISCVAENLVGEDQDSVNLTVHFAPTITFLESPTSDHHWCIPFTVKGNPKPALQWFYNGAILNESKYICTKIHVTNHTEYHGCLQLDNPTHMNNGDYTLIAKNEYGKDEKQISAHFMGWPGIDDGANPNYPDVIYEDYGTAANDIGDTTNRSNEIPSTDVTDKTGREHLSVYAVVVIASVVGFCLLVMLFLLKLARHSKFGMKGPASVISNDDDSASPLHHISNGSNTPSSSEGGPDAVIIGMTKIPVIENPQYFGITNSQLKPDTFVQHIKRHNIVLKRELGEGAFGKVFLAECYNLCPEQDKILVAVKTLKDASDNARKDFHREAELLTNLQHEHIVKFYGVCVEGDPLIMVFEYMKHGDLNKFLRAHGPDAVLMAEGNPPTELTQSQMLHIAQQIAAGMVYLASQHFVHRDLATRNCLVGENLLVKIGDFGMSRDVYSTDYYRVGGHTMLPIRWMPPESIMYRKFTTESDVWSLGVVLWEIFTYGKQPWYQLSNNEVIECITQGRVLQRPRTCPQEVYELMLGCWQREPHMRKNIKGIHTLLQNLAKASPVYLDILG

- pIC50 [1]: < 3.30
- pIC50 [2]: 7.15
- pIC50 [3]: < 3.30
Structure (SMILES): Cn1ccc(-c2cc(C(=O)Nc3cc(O)cnc3-c3ccccc3)ccc2C(F)(F)F)n1

- pIC50 [1]: 6.12
- pIC50 [2]: 8.40
Structure (SMILES): CC(=O)NCc1ncc(NC(=O)c2ccc(C(F)(F)F)c(-c3cn(C)cn3)c2)c(-c2ccccc2)n1

- pIC50 [1]: 4.69
- pIC50 [2]: 7.65
- pIC50 [3]: 3.72
Structure (SMILES): Cn1ccc(-c2cc(C(=O)Nc3cc(C(=O)O)cnc3-c3ccccc3)ccc2C(F)(F)F)n1

- pIC50 [1]: 5.60
- pIC50 [2]: 8.57
- pIC50 [3]: 5.88
Structure (SMILES): CCOc1nn(-c2ccccc2)c(NC(=O)N[C@H]2CN(CCOC)C[C@@H]2c2ccc(F)c(F)c2)c1C

Structure (SMILES): CC(C)Cc1ccc(C(C)C(=O)O)cc1 (centres undefined)
- Activity (Mus musculus [4]): Active

- Drug metabolism [6]: Metabolite_Detected
- Drug metabolism [7]: Metabolite_Detected
- Drug metabolism [9]: Metabolite_Notdetected
- Drug metabolism [14]: Metabolite_Detected
- Drug uptake [16]: Not Active
Structure (SMILES): CC(=O)OCOC(=O)c1cnc(-c2ccccc2)c(NC(=O)c2ccc(C(F)(F)F)c(-c3ccn(C)n3)c2)c1
- Activity (Mus musculus [5]): inactive
- Activity (Mus musculus [8]): Dose-Dependent Effect
- Activity (Mus musculus [10]): Active
- Activity (Mus musculus [11]): Active
- Activity (Mus musculus [12]): Dose-Dependent Effect
- ED50 (Mus musculus [13]): 7.84 mg/kg
- Activity (Mus musculus [15]): inactive
- Activity (Mus musculus [17]): 20%

- pIC50 [1]: 4.60
- pIC50 [2]: 7.00
- pIC50 [18]: 7.00
- pIC50 [3]: < 4.09
- inhibition [19]: > 70%
Structure (SMILES): Cc1ncc(-c2ccccc2)c(NC(=O)NC2c3ccccc3-c3ccccc32)n1

- Drug metabolism [6]: Metabolite_Detected
- Drug metabolism [7]: Metabolite_Detected
- Drug metabolism [9]: Metabolite_Notdetected
Structure (SMILES): COC(=O)[C@H](C)NP(=O)(Oc1ccccc1)Oc1cnc(-c2ccccc2)c(NC(=O)c2ccc(C(F)(F)F)c(-c3ccn(C)n3)c2)c1 (some centres undefined)
- Activity (Mus musculus [5]): inactive
- Activity (Mus musculus [17]): 20%
- Activity (Mus musculus [20]): Active

- pIC50 [1]: < 3.30
- pIC50 [2]: 6.10
- pIC50 [3]: < 3.30
Structure (SMILES): Cn1ccc(-c2cc(C(=O)Nc3cc(OP(=O)(O)O)cnc3-c3ccccc3)ccc2C(F)(F)F)n1

Reference: ChEMBL document CHEMBL5344410, “Design, development and evaluation of a prodrug-type TrkA-selective inhibitor with antinociceptive effects in vivo” (Eur J Med Chem, 2023)
